Earlier results in patent US20260098286A1, “Low Dose Psilocybin in Foodstuff and Microbes for Same” (ATX PHARMERS LLC, priority 2021, published 2026).

Key:
[1] = test system: human serotonin-related receptors
[2] = adults
[3] = degrades in the presence of oxygen
[4] = weight per weight basis
[5] = not given; remark: listed apart in the source
[6] = in vivo

Row | SMILES | number of human serotonin-related receptors bound [1] | blood plasma concentration at which psychological effects occur [2] | psilocin concentrations in the plasma (average) ([2]; within 2 hours after single 15 mg oral psilocybin dose) | stability in solution [3] | potency relative to LSD (times less potent) [4] | effects begin after ingestion (after ingestion) | effects last (depending on dose, species, and individual metabolism) | half-life of psilocybin (taken orally) | detectability in the urine ([5]; after 7 days) | ingested psilocybin absorbed through the stomach and intestine ([5]; animal studies) | absorbed psilocybin excreted in the bile and feces ([5]; within 24 hours) | absorbed psilocybin excreted into the urine ([5]; within 24 hours) | toxicity [6]
1 | CN(C)CCc1c[nH]c2cccc(O)c12 [psilocin] | over 15 | 4-6 μg/liter | about 8 μg/liter | relatively unstable |  |  |  |  |  |  |  |  | 
2 | CN(C)CCc1c[nH]c2cccc(OP(=O)(O)O)c12 [psilocybin, 4-phosphoryloxy-N,N-dimethyltryptamine] |  |  |  |  | about 100 times | 10 to 40 min | 2 to 6 h | 2.72 ± 1.07 h | still detectable | about 50% | 15-20% | about 65% | low toxicity
